Measured values: publication PMC8145107 (Pharmaceutics, 2021)
Values joined by “and” are separate entries in the source; they are usually repeats but may differ in a detail not shown here. Identical values can stand only once. Like-named read-outs stand apart in the source and are kept apart here.

Columns and labels:
[1] = In vitro human plasma stability; assay type: in vitro ADME; details: for Half-life predicted from in vitro plasma stability: human plasma
Procedure: (§7) Permeability was evaluated with a parallel artificial membrane permeability (PAMPA) assay using an artificially generated lipid-infused membrane.

[2] = test system: Salmonella typhimurium TA98; details: for Ames test outcome versus vehicle control: TA98, 48 h, J2 40 μg/plate, NA49 200 μg/plate
Procedure: (§1) To perform the Ames test of J2 and NA49, the number of revertant colonies was counted on each compound-treated plate at the maximum concentration at which the compound was soluble and nontoxic to the S. typhimurium tester strains (Supplementary Material S1). The ratio of the number of revertant colonies in the treated plate to colonies in the vehicle plate. […] For the hERG K^+ channel binding assay of J2 and NA49, the inhibitory activity against the hERG K^+ channel and its ligand was measured using a red fluorescent hERG channel ligand tracer. The final activity was assessed as a decrease in the degree of fluorescence polarization. […]
(§2) The test was conducted with maximum concentration at which the compound was
(§3) soluble and nontoxic to the S. typhimurium tester strains. #Factor = No. of revertant colonies
(§4) of treated plate colonies of vehicle control plate. […]

[3] = test system: Salmonella typhimurium TA100; details: for Ames test outcome versus vehicle control: TA100, 48 h, J2 40 μg/plate, NA49 200 μg/plate
Procedure: as §1, §2, §3, §4

[4] = Liver microsomal phase I stability assay (mouse); assay type: in vitro ADME; details: mouse liver microsomes
[5] = biological target: CYP450 3A4 (Homo sapiens, UniProt P08684); experiment: CYP450 enzyme inhibition, 3A4
[6] = test system: T1, HSP27; experiment: HSP27 cross-linking in NCI-H460 cells (Western blot); assay type: cell-based, human; details: 0-20 μM, 24 h
T1 construct: endogenous in cells; host or cells: NCI-H460
Procedure: For polyacrylamide gel electrophoresis (PAGE) and Western blot (WB) analysis, cells were lysed with radioimmunoprecipitation assay (RIPA) buffer (50 mM Tris-HCl [pH 7.5], 150 mM NaCl, 1% NP-40, 0.1% sodium dodecyl sulfate (SDS), and 1% sodium deoxycholate) supplemented with 1 mM Na3VO4, 1 mM dithiothreitol (DTT), 1 mM phenyl-methyl-sulfonyl fluoride (PMSF), and protease inhibitor cocktail (Calbiochem). The samples were boiled for 5 min, and equal amounts of protein were analyzed by SDS-PAGE. […]
( B) NCI-H460 cells were tr eated with J2 or NA49 (0, 1, 5, 10 and 20 μM) for 24 h, and cell lysates were
detected by Western blot analysis. […]

[7] = test system: L929: NCTC clone 929, mouse fibroblast cell line; experiment: Cytotoxicity in normal mammalian cells (L929); assay type: cell-based; details: L929, 24 h, 0.01-100 μM, read-out: IC50 of compounds in various normal mammalian cells
[8] = test system: HFL-1: human embryonic lung cell line; experiment: Cytotoxicity in normal mammalian cells (HFL-1); assay type: cell-based; details: HFL1, HFL-1, 24 h, 0.01-100 μM, read-out: IC50 of compounds in various normal mammalian cells
[9] = test system: normal mammalian cells; experiment: Cytotoxicity, range over the normal mammalian cell panel; assay type: cell-based; details: HFL-1, L929, NIH3T3, CHO-K1, VERO; 24 h; read-out: IC50 values, range over the normal cell lines
[10] = PAMPA permeability assay; assay type: in vitro ADME; details: for Papp: read-out: Cell Permeability Log Papp (converted)
Procedure: as §7

[11] = biological target: CYP450 2C19 (Homo sapiens, UniProt P33261); experiment: CYP450 enzyme inhibition, 2C19; assay type: in vitro ADME; details: compound 0.05~50 μM; read-out: IC50 against CYP450 isotype 2C19
Procedure: as §7

[12] = test system: ICR mice; experiment: Single-dose IV toxicity in ICR mice; assay type: in vivo, mouse; details: 14 days, n = 4
Text: (§5) Male Sprague–Dawley rats (7-week-old) and male Institute of Cancer Research (ICR) mice (5-week-old) were purchased from Orient Bio (Seongnam, Korea) and Samtako Bio (Osan, Korea), respectively. The experimental animals were housed under conventional conditions and fasted overnight before surgery for catheterization. All procedures for animal experiments were in accordance with the guidelines by the Ewha Woman’s University Institutional Animal Care and Use Committee (IACUC, 15-049 and 16-062), Korea.
(§6) For single-dose toxicity study of each drug, ICR mice were divided into 6 groups of control (0.9% normal saline), vehicle, and four dosages of each inhibitor (n = 4 mice per group). Both inhibitors dissolved in the same solvent system as the pharmacokinetic study were administered to the mice by caudal vein injection at doses of 2.5, 7.5, 15 and 30 mg/kg. After a single administration, all mice were observed daily for general conditions including behavior, hair, eyes, and nose. In addition, body weight was measured on days 0, 3, 7, and 14 following IV administration.

[13] = Single-dose IV toxicity in ICR mice; assay type: in vivo, mouse; details: male, mouse, in vivo, not achieved by the maximum dose
Text: as §5, §6

[14] = TA98, with S-9 mix, J2 40, NA49 200, benzo(a)pyrene 2 μg/plate
[15] = TA98, without S-9 mix, J2 40, NA49 200, positive controls 1-2 μg/plate
[16] = TA100, with S-9 mix, J2 40, NA49 200, benzo(a)pyrene 2 μg/plate
[17] = TA100, without S-9 mix, J2 40, NA49 200 μg/plate

Sequence of CYP450 3A4 (P08684 whole entry): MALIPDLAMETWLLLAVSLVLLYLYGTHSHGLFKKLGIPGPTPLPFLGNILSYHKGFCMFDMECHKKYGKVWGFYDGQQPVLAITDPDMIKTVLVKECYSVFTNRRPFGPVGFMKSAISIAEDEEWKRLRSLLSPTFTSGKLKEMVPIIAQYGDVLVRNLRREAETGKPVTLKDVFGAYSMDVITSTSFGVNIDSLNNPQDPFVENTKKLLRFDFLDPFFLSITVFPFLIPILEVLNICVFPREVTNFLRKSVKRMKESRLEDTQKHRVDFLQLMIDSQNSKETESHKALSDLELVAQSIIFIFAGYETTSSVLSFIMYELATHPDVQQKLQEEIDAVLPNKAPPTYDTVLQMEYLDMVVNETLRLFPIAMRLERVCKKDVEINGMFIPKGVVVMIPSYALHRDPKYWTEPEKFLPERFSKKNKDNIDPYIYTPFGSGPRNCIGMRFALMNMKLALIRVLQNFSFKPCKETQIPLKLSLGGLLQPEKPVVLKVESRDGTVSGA
Sequence of CYP450 2C19 (P33261 whole entry): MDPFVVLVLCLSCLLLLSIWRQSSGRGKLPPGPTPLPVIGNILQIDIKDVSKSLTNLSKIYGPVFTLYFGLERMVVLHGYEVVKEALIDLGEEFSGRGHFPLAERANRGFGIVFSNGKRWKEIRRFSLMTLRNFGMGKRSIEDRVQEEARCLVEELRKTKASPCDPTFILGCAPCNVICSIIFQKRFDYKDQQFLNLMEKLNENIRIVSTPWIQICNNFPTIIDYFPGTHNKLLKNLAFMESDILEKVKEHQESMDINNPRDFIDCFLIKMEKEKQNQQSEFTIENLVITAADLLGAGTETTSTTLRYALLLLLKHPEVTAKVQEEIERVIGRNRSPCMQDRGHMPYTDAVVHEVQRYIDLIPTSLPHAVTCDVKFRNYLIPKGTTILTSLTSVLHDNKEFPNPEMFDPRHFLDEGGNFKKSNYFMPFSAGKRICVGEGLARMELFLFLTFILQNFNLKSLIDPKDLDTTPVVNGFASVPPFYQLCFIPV

SMILES	Half-life predicted from in vitro plasma stability [1]	In vitro Human Plasma Stability at 37 °C (% of remaining after 1 h) ([1]; treated with 0.5 μg/mL)	In vitro Human Plasma Stability at 37 °C (% of remaining after 1 h) ([1]; treated with 5 μg/mL)	Factor (revertant colonies of treated plate/vehicle control plate) [2, 14]	Revertant colonies/plate (Mean ± S.D.) [2, 14] [colonies/plate]	Factor (revertant colonies of treated plate/vehicle control plate) [2, 15]	Revertant colonies/plate (Mean ± S.D.) [2, 15] [colonies/plate]	Ames test outcome versus vehicle control [2]	Factor (revertant colonies of treated plate/vehicle control plate) [3, 16]	Revertant colonies/plate (Mean ± S.D.) [3, 16] [colonies/plate]	Factor (revertant colonies of treated plate/vehicle control plate) [3, 17]	Revertant colonies/plate (Mean ± S.D.) [3, 17] [colonies/plate]	Ames test outcome versus vehicle control [3]	In vitro Metabolic Stability (% of remaining after 30 min) [4] [%]	IC50 [5] [µM]	HSP27 cross-linking activity (altered dimerization) [6]	IC50 [7] [µM]	IC50 [8] [µM]	IC50 [9] [µM]	Cell permeability, rating [10]	further results
Cc1cc(=O)c2c(O)cc(OCC3CS3)cc2o1 (stereo not drawn) [J2]	about 3 h	76.2% and 76.2 ± 0.72%	82.7% and 82.7 ± 0.73%	3.8	65 ± 2	3.6	57 ± 7	increased bacterial reverse mutation	3.1	418 ± 9	6.0	643 ± 70	increased bacterial reverse mutation	6.2 ± 2.55	> 50	altered dimerization was detected	> 100	> 100	≥ 91.8	low	Papp [10]: 12.6 ×10⁻⁶ cm/s; IC50 [11]: > 50 µM; Survival Rate (%) ([12]; 2.5 mg/kg): 100%; Survival Rate (%) ([12]; 7.5 mg/kg): 100%; Survival Rate (%) ([12]; 15 mg/kg): 100%; Survival Rate (%) ([12]; 30 mg/kg): 100%; LD50 at 14 days [13]: > 30 mg/kg
COc1ccc(-c2coc3cc(OCC4CS4)ccc3c2=O)c(OC)c1 (stereo not drawn) [NA49]	> 6 h	146.6% and 146.6 ± 0.01%	101.4% and 101.4 ± 0.13%	1.3	22 ± 2	1.2	19 ± 3	no significant increase	1.9	262 ± 11	2.0	229 ± 2	no significant increase	2.4 ± 0.95	> 50	slightly less than J2	91.9	94.5	83.6 to 96.5	moderate	Papp [10]: 32.4 ×10⁻⁶ cm/s; IC50 [11]: > 50 µM; Survival Rate (%) ([12]; 2.5 mg/kg): 100%; Survival Rate (%) ([12]; 7.5 mg/kg): 100%; Survival Rate (%) ([12]; 15 mg/kg): 100%; Survival Rate (%) ([12]; 30 mg/kg): 75%; LD50 at 14 days [13]: > 30 mg/kg
